Measured values published in PMC11695783 (Frontiers in Pharmacology, 2024).
Values after ≈ are worked out from the molar mass of the structure shown. Values joined by “and” are separate entries in the source; they are usually repeats but may differ in a detail not shown here. Equal values may be shown once. Where a name gives a salt, the structure may show the parent alone.

How the values were obtained:
Mycoplasma pneumoniae = experiment: In vivo pharmacodynamic study: Mycoplasma pneumoniae loads in BALF of infected mice; design: species or system BALB/c mice; details: tiamulin 40 mg/kg PO (fumarate soluble powder); for MPcounts in BALF (AV): group AV; for MPcounts in BALF: individual mice
Protocol: (§1) Adult BALB/c mice (20–22 g) were divided into a control group, a positive group, and compound 16C groups at low (20 mg/kg), medium (40 mg/kg), and high-dose (80 mg/kg) levels and oral and intramuscular tiamulin treatment groups (40 mg/kg). We formulated the above dose range based on the dose at which tiamulin was approved for injection (10–20 mg/kg) and the dose previously reported (45 mg/kg) ([EMA, 1999]; [Xiao et al., 2016]). In summary, we selected similar doses for compound 16C in vivo study. 40 mg/kg was used as an intermediate value, one-half of it as a low dose, and two times of it as a high dose. To prepare the challenge solution, logarithmic phase culture suspensions were centrifuged at 1700 g for 10 min, and the pellets were suspended in sterile PBS to obtain 1 × 10^9 CFU/mL. Before the challenge, mice were anesthetized with tribromoethanol (250 mg/kg, IP). Mice in the control groups were intratracheally inoculated with sterile PBS, whereas mice in the other groups were intratracheally challenged with 50 μL (1 × 10^9 CFU/mL) M. pneumoniae suspension once a day for 3 days. Compound 16C and tiamulin (tiamulin-IM group) dissolved using the method mentioned in pharmacokinetic studies, and the tiamulin fumarate soluble powder was dissolved in ddH2O for oral administration. After the final challenge, antibiotics were administered at low, medium, and high-dose levels (see above) at 10 a.m. and 10 p.m. daily for 4 consecutive days. Normal saline containing 5% DMSO and 5% Tween-80 was administered as control and positive groups by thigh intramuscular injection. To compare the efficacy of compound 16C and tiamulin under the same route of administration, we used the original tiamulin for intramuscular administration in the same formulation. On the other hand, tiamulin fumarate soluble powder, approved for oral administration to treat animal mycoplasma diseases in China, was administered to mice by gavage. Based on a clinical study of lefamulin in community-acquired bacterial pneumonia (CABP), subjects were administered twice a day and the 96 ± 24 h of starting treatment was an essential point for early clinical response (ECR) ([Paukner et al., 2022]). We therefore stopped treatment at 96 h and sampled at 192 h to explore whether the disease worsened after cessation of treatment. Bronchoalveolar lavage fluid (BALF) and lungs were collected at 0, 96, 192 h (Samples of 0 h were collected before starting treatment, and mice were fed ad libitum without drug treatment during 96–192 h) after the first dose, BALF for cytokine and cytological analysis and lung for histopathological evaluation.
(§2) Bronchoalveolar lavage was performed according to a standardized method ([Van Hoecke et al., 2017]). BALF was obtained following infusion of 0.5 mL PBS via tracheal cannulation into the lung twice (total 1 mL), and 200 µL was used for mycoplasma counts. The remaining BALF was centrifuged at 300 g for 10 min to separate the debris. The supernatants were stored at −80°C, and the debris was resuspended in the same volume of PBS containing red blood cell lysis buffer. A hemocytometer was used to count total cell numbers in BALF, and cell smears (Diff-Quik staining) were prepared to calculate the percentages of neutrophils, macrophages, and lymphocytes. IFN-γ, TNF-α, and CXCL1 levels in BALF samples were assessed using commercial ELISA kits using guidelines recommended by the manufacturer (Elabscience, Wuhan, China). Parallel data for each experimental group at each time point were obtained from six different mice.

IFN-γ = IFN-γ in BALF of M. pneumoniae-infected mice (ELISA); format: in vivo, BALB/c mice; details: tiamulin 40 mg/kg PO (fumarate soluble powder); for IFN-γ in BALF (AV): group AV; for IFN-γ in BALF: individual mice
Protocol: as §1, §2

TNF-α = TNF-α in BALF of M. pneumoniae-infected mice (ELISA); format: in vivo, BALB/c mice; details: tiamulin 40 mg/kg PO (fumarate soluble powder), individual mice
Protocol: as §1, §2

CXCL1 = CXCL1 in BALF of M. pneumoniae-infected mice (ELISA); format: in vivo, BALB/c mice; details: tiamulin 40 mg/kg PO (fumarate soluble powder), individual mice
Protocol: as §1, §2

[1] = test system: Mycoplasma pneumoniae-infected mice (lung tissue); experiment: Histopathological assessment of lung tissue (HPS, response and recovery rates) in M. pneumoniae-infected mice; format: in vivo, BALB/c mice; design: HPS value (mean) / HPS: scale not given here; details: tiamulin 40 mg/kg PO (fumarate soluble powder); for HPS: individual mice
Protocol: as §1
Lung tissues were collected at 0, 96, and 192 h following drug administration. Lungs were collected from 6 mice in each group at 96 h and 13–15 mice in each group at 192 h. In addition, the lungs of 8 untreated infected mice were taken at 0 h as initial controls. Lung tissues were fixed in 4% paraformaldehyde, and whole-mount sections of paraffin-embedded lungs were stained with hematoxylin and eosin (H&E). The histopathologic score (HPS) was determined according to published protocols by a single pathologist who was unaware of the treatment status and groups of the animals ([Cimolai et al., 1992]). The HPS was based on individual grading of peribronchiolar/bronchial infiltrate, bronchiolar/bronchial luminal exudate, perivascular infiltrate, and parenchymal pneumoniae.

[2] = test system: Mycoplasma pneumoniae strain M129 (ATCC 29342); experiment: Susceptibility assay (broth microdilution MIC, MBC); format: cell-based
Protocol: (§3) Mycoplasma pneumoniae strain M129 (ATCC 29342) was obtained from American Type Culture Collection (Manassas, VA, United States) and cultured at 37°C in the presence of 5% CO2 in the modified SP-4 liquid medium (pH 7.4) containing 2.1% (w/v) CM1166 mycoplasma broth base medium (Oxoid, Hants, United Kingdom), 20% (v/v) fetal bovine serum (FBS, Bioexplorer, CO, United States), 0.4% yeast extract (Oxoid), 0.55% (w/v) CMRL 1066 w/L-glutamine culture media powder (MyBioSource, San Diego, CA, United States), 1% D-glucose (Macklin) and 0.004% phenol red (Macklin). […] The solid medium is based on the above formula with the addition of 1% agar, and the characteristic fried egg-like colonies were used for experiments following incubation for 7 d on plates.
The broth microdilution MIC procedure was performed according to standardized methods for microdilution susceptibility testing of mycoplasma species ([Waites et al., 2012]). […] The concentration of organisms should be determined to approximately 10^6 CFU/mL prior to inoculation into 96-well plates. Due to the action of phenol red, the acidic metabolites of microbial growth can turn the medium yellow. […] The MBC assays were performed based on MICs following endpoint reading and the liquid in the high-concentration wells was removed for bacterial counting.

[3] = test system: Mycoplasma pneumoniae strain M129 (ATCC 29342); experiment: Time-kill curves; format: cell-based; design: M. pneumoniae count in time-kill curve: unit not given here
Protocol: as §3
The tubes were incubated at 37°C in 5% CO2 for 72 h, and 200 µL of the culture was removed every 12 h for 10-fold serial dilutions. The diluted cultures were plated on plates for further culture and counted after 7 d. The experiment was repeated three times.

Q: Which results are given for `C=C[C@]1(C)C[C@@H](OC(=O)CSCCN(CC)CC)[C@]2(C)[C@H](C)CC[C@]3(CCC(=O)[C@H]32)[C@@H](C)[C@@H]1O` [Tiamulin-PO, Tiamulin fumarate, reference compound]?
A: MPcounts in BALF (AV) (Mycoplasma pneumoniae; 96 h): 4.578 Log10CFU/mL; MPcounts in BALF (Mycoplasma pneumoniae; 96 h): 4.372 Log10CFU/mL and 4.349 Log10CFU/mL and 5.68 Log10CFU/mL and 4.443 Log10CFU/mL and 4.274 Log10CFU/mL and 4.354 Log10CFU/mL; MPcounts in BALF (AV) (Mycoplasma pneumoniae; 192 h): 4.3846 Log10CFU/mL; MPcounts in BALF (Mycoplasma pneumoniae; 192 h): 4.0302 Log10CFU/mL and 4.805 Log10CFU/mL and 4.331 Log10CFU/mL and 4.53 Log10CFU/mL and 4.4765 Log10CFU/mL and 4.136 Log10CFU/mL; IFN-γ in BALF (AV) (IFN-γ; 96 h): 32.2599 pg/mL; IFN-γ in BALF (IFN-γ; 96 h): 34.8842 pg/mL and 17.3704 pg/mL and 63.2217 pg/mL and 29.659 pg/mL and 25.3118 pg/mL and 23.1122 pg/mL; IFN-γ in BALF (AV) (IFN-γ; 192 h): 34.0801 pg/mL; IFN-γ in BALF (IFN-γ; 192 h): 37.2747 pg/mL and 51.8224 pg/mL and 27.2214 pg/mL and 28.4425 pg/mL and 30.8711 pg/mL and 28.8485 pg/mL; TNF-α in BALF (TNF-α; 96 h): 13.0598 pg/mL and 17.5743 pg/mL and 24.463 pg/mL and 20.81 pg/mL and 21.310 pg/mL and 10.7269 pg/mL; TNF-α in BALF (TNF-α; 192 h): 8.7059 pg/mL and 12.3017 pg/mL and 9.398 pg/mL and 5.239 pg/mL and 5.021 pg/mL and 15.24 pg/mL; CXCL1 in BALF (CXCL1; 96 h): 47.9583 pg/mL and 40.7995 pg/mL and 44.8333 pg/mL and 37.1973 pg/mL and 31.7608 pg/mL and 43.0428 pg/mL; CXCL1 in BALF (CXCL1; 192 h): 52.4056 pg/mL and 49.740 pg/mL and 60.3659 pg/mL and 36.7459 pg/mL and 45.7272 pg/mL; HPS ([1]; 96 h): 2.5 and 4 and 1 and 3; HPS ([1]; 192 h): 1.5 and 2 and 1 and 8 and 0 and 3 and 4; Recovery ([1]; from HPS at 192 h): 6.67%; Response ([1]; from HPS at 192 h): 86.67%

Q: Which results are given for `CC[C@H]1OC(=O)[C@H](C)[C@@H](O[C@H]2C[C@@](C)(OC)[C@@H](O)[C@H](C)O2)[C@H](C)[C@@H](O[C@@H]2O[C@H](C)C[C@H](N(C)C)[C@H]2O)[C@](C)(O)C[C@@H](C)C(=O)[C@H](C)[C@@H](O)[C@]1(C)O` [erythromycin]?
A: MIC ([2]; M. pneumoniae strain M129, ≈96 h, read-out: MIC): 0.016 µg/mL (≈ 0.0218 µM); MBC ([2]; M. pneumoniae strain M129, read-out: MBC): 0.032 µg/mL (≈ 0.0436 µM); M. pneumoniae count in time-kill curve ([3]; 1×MIC, time 0): 7.138; M. pneumoniae count in time-kill curve ([3]; 1×MIC, time 12): 6.145; M. pneumoniae count in time-kill curve ([3]; 1×MIC, time 24): 6.32; M. pneumoniae count in time-kill curve ([3]; 1×MIC, time 36): 5.109; M. pneumoniae count in time-kill curve ([3]; 1×MIC, time 48): 4.8395; M. pneumoniae count in time-kill curve ([3]; 1×MIC, time 60): 5.816; M. pneumoniae count in time-kill curve ([3]; 1×MIC, time 72): 6.113; decrease of bacterial load ([3]; 2 × MIC, 72 h exposure): 3.61 log10 CFU/mL; M. pneumoniae count in time-kill curve ([3]; 2×MIC, time 0): 7.138; M. pneumoniae count in time-kill curve ([3]; 2×MIC, time 12): 6.411; M. pneumoniae count in time-kill curve ([3]; 2×MIC, time 24): 6.275; M. pneumoniae count in time-kill curve ([3]; 2×MIC, time 36): 4.753; M. pneumoniae count in time-kill curve ([3]; 2×MIC, time 48): 4.288; M. pneumoniae count in time-kill curve ([3]; 2×MIC, time 60): 4.145; M. pneumoniae count in time-kill curve ([3]; 2×MIC, time 72): 3.53; M. pneumoniae count in time-kill curve ([3]; 4×MIC, time 0): 7.138; M. pneumoniae count in time-kill curve ([3]; 4×MIC, time 12): 6.078; M. pneumoniae count in time-kill curve ([3]; 4×MIC, time 24): 6.148; M. pneumoniae count in time-kill curve ([3]; 4×MIC, time 36): 4.203; M. pneumoniae count in time-kill curve ([3]; 4×MIC, time 48): 3.916; M. pneumoniae count in time-kill curve ([3]; 4×MIC, time 60): 3.913; M. pneumoniae count in time-kill curve ([3]; 4×MIC, time 72): 3.415; M. pneumoniae count in time-kill curve ([3]; 8×MIC, time 0): 7.138; M. pneumoniae count in time-kill curve ([3]; 8×MIC, time 12): 6.379; M. pneumoniae count in time-kill curve ([3]; 8×MIC, time 24): 6.145; M. pneumoniae count in time-kill curve ([3]; 8×MIC, time 36): 4.163; M. pneumoniae count in time-kill curve ([3]; 8×MIC, time 48): 3.977; M. pneumoniae count in time-kill curve ([3]; 8×MIC, time 60): 3.326; M. pneumoniae count in time-kill curve ([3]; 8×MIC, time 72): 3.283; M. pneumoniae count in time-kill curve ([3]; 16×MIC, time 0): 7.138; M. pneumoniae count in time-kill curve ([3]; 16×MIC, time 12): 6.732; M. pneumoniae count in time-kill curve ([3]; 16×MIC, time 24): 6.1338; M. pneumoniae count in time-kill curve ([3]; 16×MIC, time 36): 3.93; M. pneumoniae count in time-kill curve ([3]; 16×MIC, time 48): 3.332; M. pneumoniae count in time-kill curve ([3]; 16×MIC, time 60): 3.123; M. pneumoniae count in time-kill curve ([3]; 16×MIC, time 72): 3.438; M. pneumoniae count in time-kill curve ([3]; 32×MIC, time 0): 7.138; M. pneumoniae count in time-kill curve ([3]; 32×MIC, time 12): 6.133; M. pneumoniae count in time-kill curve ([3]; 32×MIC, time 24): 5.307; M. pneumoniae count in time-kill curve ([3]; 32×MIC, time 36): 3.588; M. pneumoniae count in time-kill curve ([3]; 32×MIC, time 48): 3.619; M. pneumoniae count in time-kill curve ([3]; 32×MIC, time 60): 3.2228; M. pneumoniae count in time-kill curve ([3]; 32×MIC, time 72): 3.181; M. pneumoniae count in time-kill curve ([3]; 64×MIC, time 0): 7.138; M. pneumoniae count in time-kill curve ([3]; 64×MIC, time 12): 6.741; M. pneumoniae count in time-kill curve ([3]; 64×MIC, time 24): 5.886; M. pneumoniae count in time-kill curve ([3]; 64×MIC, time 36): 3.638; M. pneumoniae count in time-kill curve ([3]; 64×MIC, time 48): 3.377; M. pneumoniae count in time-kill curve ([3]; 64×MIC, time 60): 2.841; M. pneumoniae count in time-kill curve ([3]; 64×MIC, time 72): 2.68; concentration at which bactericidal effect was achieved ([3]; static time-kill, 72 h): 2 × MIC
